# Experimental data taken from US20130084267A1, “METHOD FOR STEM CELL DIFFERENTIATION” (THE UNIVERSITY OF QUEENSLAND, priority 2010, published 2013).
# Legend:
# [1] = system: iPSC; experiment: Immunofluorescence marker analysis of iPSC differentiated in the presence of SB431542; assay type: cell-based, human
# From the text: Nuclei were counter-stained with dapi (blue). […] Nuclei were counter-stained with dapi (blue).
# [2] = system: MR90; experiment: qRT-PCR gene expression analysis of SB431542-treated MR90; assay type: cell-based, human; settings: MR90, 10 μM SB431542, 10 days
# Experimental: Pluripotent iPSC, MR90, were cultured in KOSR medium with 10 μM SB431542 treatment for 10 days. After 10 days treatment, MR90 cells were subcultured in the MSC medium for differentiating MSC cells. […] MSC are indicated as MR90-MSC P0 (passage 0). The SB431542 treated cells and MR90-MSC P0 were analyzed for gene expression. (a-d) OCT4, SOX2, MYST2 and EPCAM genes associated with iPSC pluripotency. (e-h) NCAM, MSX2, LEFTY1 and BMP4 genes expressed by cell lineages from the mesoderm. (i-j) PAX6 gene is expressed by cell lineages from the ectoderm and CDX2 gene is expressed by cell lineages from the trophectoderm. (k) GATA gene expressed by cell lineages from the endoderm. (l-o) Genes expressed by MSC (positive in CD29, CD73 and negative in the CD117, CD133). Gene expression was normalized to GAPDH. All experiments represent duplicates.
# (A, B) The heat map of mRNA expression level was assayed by qRT-PCR array. ESC/iPSC cells were cultured in KOSR condition medium with 10 μM SB431542. […] (C) Relative mRNA transcripts folds change of quantitative RT-PCR analysis in the indicated cell subsets. […]
# Pluripotent iPSC (MR90) were cultured in mTESR medium and KOSR medium with 10 μM SB431542 for 10 days. […] After 10 days, SB431542-treated cells and MR90-MSC P0 cells were analyzed for gene expression (see FIG. 13). […]
# [3] = system: hESC; experiment: Morphology of hESC cultured in the presence of SB431542; assay type: cell-based, human; settings: after 10 days incubation with SB431542
# From the text: (A) hESC remain as tightly packed colonies of small cells when cultured in normal growth conditions. […] (B) When these cells are transferred to MSC media, they again change morphology and become fibroblastic. (C) MSC also have a fibroblast-like morphology. (D) hiPSC line ES4CL1 also differentiates though an epithelial-like morphology into MSC-like cells with this SB431542 inhibitor culture method.
# Day −4 to −1: hESC/iPSC were dissociated from mouse embryonic fibroblast (MEF) feeder layer and seeded on either un-coated flasks (i.e., which allow for adherence (attachment) of the pluripotent cells to the surface) or matrigel-coated flasks in mTESR (defined pluripotent stem cell media, Stem Cell Technologies; i.e. serum free, feeder layer free).
# Day 1: when cell colonies were approximately 40% confluent, 10 uM SB431542 inhibitor (Sigma Aldrich) was added in DMEM:F12+20% knock out serum replacement (KOSR, Invitrogen) media.
# Day 2-9: 20% KOSR+SB431542 inhibitor media replaced daily.
# Day 7-10: when 90%+ cells have differentiated from hESC colonies to a monolayer with epithelial-like morphology, cells were passaged using TrypleSelect. Single cells were then seeded at 3×10^4-1.5×10^5 cells/cm^2 in fetal MSC medium (DMEM-HG+10% MSC qualified FBS), then passage when nearly confluent as for MSC.
# [4] = system: BMP signaling utilizing ALK-1, -2, -3, and -6; settings: Inman et al. 2002; Laping et al. 2002; cited from earlier work
# [5] = system: ALK-4, -5 and -7; settings: Inman et al. 2002; Laping et al. 2002; cited from earlier work
# [6] = system: MEL1; experiment: qRT-PCR gene expression analysis of SB431542-treated MEL1; assay type: cell-based, human; settings: MEL1, 10 μM SB431542, 10 days
# Experimental: The pluripotent hESC line, MEL1, was cultured in KOSR medium with 10 μM SB431542 treatment. After 10 days treatment, MEL1 cells were subcultured in MSC medium for differentiating MSC cells. […] SB431542 treated cells and MEL1-MSC P2 were analyzed for gene expression. (a-d) OCT4, SOX2, MYST2 and EPCAM genes associated with iPSC pluripotency. (e-h) NCAM, MSX2, LEFTY1 and BMP4 genes expressed by cell lineages from the mesoderm. (i-j) PAX6 gene is expressed by cell lineages from the ectoderm and CDX2 gene is expressed by cell lineages from the trophectoderm. (k) GATA gene expressed by cell lineages from the endoderm. (l-o) Genes expressed by MSC (positive in CD29, CD73 and negative in the CD117, CD133). Gene expression was normalized to GAPDH. All experiments represent duplicates. […] (A, B) The heat map of mRNA expression level was assayed by qRT-PCR array. ESC/iPSC cells were cultured in KOSR condition medium with 10 μM SB431542. After 10 days treatment, cells were subcultured into MSC medium to differentiate cells into MSC. RNA was extracted from MEL1 and MR90 cells at day 10. […] (C) Relative mRNA transcripts folds change of quantitative RT-PCR analysis in the indicated cell subsets. All the gene expression level was normalized to GAPDH mRNA level and compared to genes level in the mTESR culture condition. […]
# [7] = system: SMAD2/3 phosphorylation; settings: Xu et al. 2008; cited from earlier work
# [8] = system: MR90 cells; experiment: Flow cytometry analysis of EPCAM expression in SB431542-treated MR90; assay type: cell-based, human
# Experimental: (a) the isotype Ab control. […] The EPCAM-(CD326-) cell population have been identified as the precursors of the mesodermal cell lineage. These cells can be further differentiated into mesenchymal stem cell lineage, like MSC. The iPSC MR90 cells were cultured in mTeSR and KOSR condition medium with SB431542 for 10 days, and then subcultured into MSC medium to differentiate cells into MSC. […] Analysis was performed by flow cytometry for EPCAM expression in the SB431542-treated MR90 cells after at 10 days in culture.
# [9] = compared with undifferentiated cells in mTeSR medium
smiles,measurement,setting,value
"NC(=O)c1ccc(-c2nc(-c3ccc4c(c3)OCO4)c(-c3ccccn3)[nH]2)cc1 [SB431542, 4-[4-(1,3-benzodioxol-5-yl)-5-(2-pyridinyl)-1H-imidazol-2-yl]-benzamide]","expression of pluripotency markers (Oct4, Nanog, Stella, SSEA3, Tra 1-60 and Tra 1-81)",[1],decreased expression
same,differentiation into germ layer lineages (lineage gene expression),[2],"induced MR90 differentiate into mesoderm (MSX1, MSX2, NCAM1, BMP4), ectoderm (PAX6) and trophectoderm (CDX2)"
same,"relative mRNA levels of pluripotent genes (Pou5F (Oct4), SOX2, MYST2)",[2]; [9],decreased
same,cell morphology,[3],differentiated into an epithelial-like monolayer
same,"effect on BMP signaling utilizing ALK-1, -2, -3, and -6",[4],without affecting
same,"inhibition of ALK-4, -5 and -7",[5],selective and potent inhibitor
same,differentiation into germ layer lineages (lineage gene expression),[6],"enhanced MEL1 differentiation into mesoderm (MSX1, MSX2, SOX9, NCAM1, BMP4), ectoderm (PAX6), trophectoderm (CDX2), endoderm (GATA4) and MSC cells (CD73, CD29)"
same,"relative mRNA levels of pluripotent genes (Pou5F (Oct4), SOX2, MYST2)",[6]; [9],decreased
same,effect on SMAD2/3 phosphorylation and NANOG promoter activity in hESC,[7],inhibiting SMAD2/3 phosphorylation and subsequent decrease in NANOG promoter activity
same,population of EPCAM+ MR90 cell,"[8]; KOSR medium with SB431542, 10 days, decreased from 22.84%",5.94%
same,population of EPCAM+ MR90 cell,"[8]; MTESR medium with SB431542, 10 days, decreased from 45%",8.14%
